The text below walks through data of patent US12624034B2, “Non-covalent modifiers of AKT1 and uses thereof” (Terremoto Biosciences, Inc., priority 2023, dated 2026).

The target in one test is T1, AKT2 (Homo sapiens, UniProt P31751).
T1 construct: expressed in transfected cells; host or cells: HEK293
Kind of test: Live cell AKT2 target engagement by NanoBRET competitive probe displacement in HEK293 cells. The following applies: 2 h at 37° C. The format is binding.

For the next test, the target named is T2, AKT1 WT (Homo sapiens, UniProt P31749).
T2 construct: expressed in transfected cells; host or cells: HEK293
Kind of test: Live cell AKT1 WT target engagement by NanoBRET competitive probe displacement in HEK293 cells. The format is binding. The following applies: 2 h at 37° C.

The mark [1] stands for this setting: NanoBRET competitive probe displacement, live HEK293 cells, read-out: AKT2 IC50.
[2] abbreviates: NanoBRET competitive probe displacement, live HEK293 cells, read-out: AKT1 WT IC50.
Where [3] appears, read: NanoBRET live cell target engagement, HEK293 cells, read-out: AKT2 IC50.
Setting [4] is: NanoBRET live cell target engagement, HEK293 cells, read-out: AKT1 WT IC50.
Where [5] appears, read: AKT1 WT IC50 (nM), NanoBRET live cell target engagement, HEK293 cells.

Like-named read-outs stand apart in the source and are kept apart here.

T1 sequence (P31751 whole entry): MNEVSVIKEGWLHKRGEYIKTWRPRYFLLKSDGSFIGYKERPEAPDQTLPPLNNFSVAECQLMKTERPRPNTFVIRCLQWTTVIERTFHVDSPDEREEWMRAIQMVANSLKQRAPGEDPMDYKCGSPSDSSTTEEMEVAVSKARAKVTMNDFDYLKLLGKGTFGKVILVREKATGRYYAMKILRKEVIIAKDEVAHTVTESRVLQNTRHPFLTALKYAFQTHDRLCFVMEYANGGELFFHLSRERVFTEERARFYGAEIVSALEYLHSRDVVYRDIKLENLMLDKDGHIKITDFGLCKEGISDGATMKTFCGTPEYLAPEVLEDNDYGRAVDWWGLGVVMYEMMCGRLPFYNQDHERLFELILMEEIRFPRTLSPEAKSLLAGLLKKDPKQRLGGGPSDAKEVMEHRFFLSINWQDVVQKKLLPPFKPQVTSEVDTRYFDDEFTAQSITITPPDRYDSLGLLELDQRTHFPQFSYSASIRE
T2 sequence (P31749 whole entry): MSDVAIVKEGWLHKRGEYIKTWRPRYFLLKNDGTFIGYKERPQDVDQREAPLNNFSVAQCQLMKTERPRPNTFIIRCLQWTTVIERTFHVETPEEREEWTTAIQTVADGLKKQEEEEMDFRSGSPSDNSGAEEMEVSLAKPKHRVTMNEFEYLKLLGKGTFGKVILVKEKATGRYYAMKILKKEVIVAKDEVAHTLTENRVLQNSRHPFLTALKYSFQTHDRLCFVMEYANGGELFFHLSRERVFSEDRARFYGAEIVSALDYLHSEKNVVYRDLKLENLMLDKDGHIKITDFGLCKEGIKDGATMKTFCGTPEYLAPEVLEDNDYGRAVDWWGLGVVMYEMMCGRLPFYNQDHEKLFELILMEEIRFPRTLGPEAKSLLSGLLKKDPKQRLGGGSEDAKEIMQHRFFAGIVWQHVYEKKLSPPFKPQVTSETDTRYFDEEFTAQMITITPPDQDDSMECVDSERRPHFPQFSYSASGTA

As to `Nc1ncccc1-c1nc2ccc(-n3ccc(OC4COC4)n3)nc2n1-c1ccc2c(c1)CC[C@@H]2NC1CCN(C(=O)C2CC2)CC1` [Compound 567], the IC50 at AKT2 (setting [1]) amounted to 455 nM; at AKT1 WT (setting [2]), 11.3 nM.
`COC1CCN(c2ccn(-c3ccc4nc(-c5cccnc5N)n(-c5ccc6c(c5)CC[C@@H]6NC5CCN(C(=O)C6CC6)CC5)c4n3)n2)CC1` [Compound 564]: the results for the IC50 at AKT2 (setting [1]) and at AKT1 WT (setting [2]) were 84.4 nM and 2.28 nM, respectively.
In the case of `Cc1ccc2nc(-c3cccnc3N)n(-c3ccc4c(c3)CC[C@@H]4NC(=O)c3cccnc3C)c2n1` [Compound 145], the IC50 at AKT2 (setting [3]) was > 10000 nM; at AKT1 WT (setting [4]) it was 170 nM.
With `COCC#Cc1ccc2nc(-c3cccnc3N)n(-c3ccc4c(c3)CC[C@@H]4NC(=O)c3ccc(C(F)F)nc3)c2n1` [Compound 409], the IC50 at AKT2 (setting [1]) was 1290 nM; on AKT1 WT (setting [2]), 36 nM.
For `COc1ccn(-c2ccc3nc(-c4cccnc4N)n(-c4ccc5c(c4)CC[C@@H]5NC4CCN(C(=O)C5CC5)CC4F)c3n2)n1` (single isomer, unassigned) [Compound 514], the IC50 on AKT2 (setting [1]) was 1130 nM; on AKT1 WT (setting [2]), 26.4 nM.
Turning to `Cc1ccc(C(=O)N[C@H]2CCc3cc(-n4c(-c5cccnc5N)nc5ccc(-c6nc(C)cs6)nc54)ccc32)cn1` [Compound 300], the IC50 stood at 8.47 nM at AKT2 (setting [3]) and 3.32 nM at AKT1 WT (setting [4]).
`Nc1ncccc1-c1nc2ccc(-n3nccn3)nc2n1-c1ccc2c(c1)CC(F)[C@@H]2NC1CCN(C(=O)C2CC2)CC1` (single isomer, unassigned) [Compound 533]: the IC50 was 7230 nM on AKT2 (setting [1]) and > 1000 nM on AKT1 WT (setting [2]).
In the case of `Cc1ncncc1C(=O)N[C@H]1CCc2cc(-n3c(-c4cccnc4N)nc4ccc(-n5cccn5)nc43)ccc21` [Compound 117], the IC50 on AKT2 (setting [3]) came out at 103 nM; on AKT1 WT (setting [4]), 5.32 nM.
Turning to `N#Cc1cc(-n2nccn2)nc2c1nc(-c1cccnc1N)n2-c1ccc2c(c1)CC[C@@H]2NC(=O)c1ccc(C(F)F)nc1` [Compound 548], the half-inhibitory concentration (IC50) at AKT2 (setting [1]) was found to be 4080 nM; on AKT1 WT (setting [2]), 27.4 nM.
The like results for `Nc1ncccc1-c1nc2ccc(-n3cccn3)nc2n1-c1ccc2c(c1)CC[C@@H]2NC1CCc2ccncc21` (single isomer, unassigned) [Example 496, (R*)—N—((S)-5-(2-(2-aminopyridin-3-yl)-5-(1H-pyrazol-1-yl)-3H-imidazo[4,5-b]pyridin-3-yl)-2,3-dihydro-1H-inden-1-yl)-6,7-dihydro-5H-cyclopenta[c]pyridin-7-amine] were, in that order, 1070 nM and 28.2 nM.
In the case of `Nc1ncccc1-c1nc2ccc(-n3cccn3)nc2n1-c1ccc2c(c1)CC[C@@H]2NC(=O)c1ccc(O)c(Cl)c1` [Compound 258], the figures for the IC50 at AKT2 (setting [3]) and on AKT1 WT (setting [4]) were 60.3 nM and 3.06 nM, respectively.
The like results for `Cc1ncccc1C(=O)N[C@H]1CCc2cc(-n3c(-c4cccnc4N)nc4c(F)cc(-n5cccn5)nc43)ccc21` [Compound 212] were, in that order, 158 nM and 57.8 nM.
`Nc1ncccc1-c1nc2ccc(-n3cccn3)nc2n1-c1ccc2c(c1)CC[C@@H]2n1cc(-c2ccccc2)nn1` [Compound 155, (S)-3-(3-(1-(4-phenyl-1H-1,2,3-triazol-1-yl)-2,3-dihydro-1H-inden-5-yl)-5-(1H-pyrazol-1-yl)-3H-imidazo[4,5-b]pyridin-2-yl)pyridin-2-amine]: the IC50 at AKT2 (AKT2 IC50 (nM), NanoBRET live cell target engagement, HEK293 cells) was found to be 197 nM; on AKT1 WT (setting [5]), 16.5 nM.
In the case of `Nc1ncccc1-c1nc2ccc(-n3cccn3)nc2n1-c1ccc2c(c1)CC[C@@H]2NC(=O)c1ccn(C2CC2)n1` [Compound 215], the figures for the IC50 at AKT2 (setting [3]) and on AKT1 WT (setting [4]) were 381 nM and 21.5 nM, respectively.
As to `CC(C)C(=O)N1CCC(N[C@@H]2c3ccc(-n4c(-c5cccnc5N)nc5ccc(-n6cccn6)nc54)cc3CC2F)CC1` (stereo partly drawn) [Compound 542], the IC50 on AKT2 (setting [1]) came out at 2330 nM; at AKT1 WT (setting [2]), 117 nM.
`Nc1ncccc1-c1nc2ccc(-n3cccn3)nc2n1-c1ccc2c(c1)CC[C@@H]2NC1CCN(c2cccnc2)C1` (stereo partly drawn) [Compound 472]: the IC50 turned out to be 404 nM at AKT2 (setting [1]) and 18 nM on AKT1 WT (setting [2]).
As for `Cc1cc(C(=O)N[C@H]2CCc3cc(-n4c(-c5cccnc5N)nc5ccc(-n6cccn6)nc54)ccc32)cc(C)n1` [Compound 76], the IC50 on AKT2 (setting [3]) was 39.4 nM; on AKT1 WT (setting [5]), 6.86 nM.
As to `Nc1ncccc1-c1nc2ccc(-n3ccc(F)n3)nc2n1-c1ccc2c(c1)CC[C@@H]2NC(=O)c1ccc(F)c(F)c1` [Compound 347], the concentration for half-maximal inhibition (IC50) was 824 nM at AKT2 (setting [3]) and 23.7 nM at AKT1 WT (setting [4]).
Regarding `CCC#Cc1ccc2nc(-c3cccnc3N)n(-c3ccc4c(c3)CC[C@@H]4NC(=O)c3ccc(C(F)F)nc3)c2n1` [Compound 412], the half-maximal inhibitory concentration (IC50) came to 686 nM at AKT2 (setting [1]) and 26.4 nM on AKT1 WT (setting [2]).
On to `CN(C)C(=O)c1ccn(-c2ccc3nc(-c4cccnc4N)n(-c4ccc5c(c4)CC[C@@H]5NC4CCN(C(=O)C5CC5)CC4)c3n2)n1` [Compound 591], for which the IC50 is 962 nM on AKT2 (setting [1]) and 25.2 nM on AKT1 WT (setting [2]).
Turning to `Nc1ncccc1-c1nc2ccc(-n3cccn3)nc2n1-c1ccc2c(c1)CC[C@@H]2N[C@@H]1CCN(c2ccccc2)C1` [Compound 469], the IC50 on AKT2 (setting [1]) was found to be 1130 nM; at AKT1 WT (setting [2]), 93.4 nM.
Regarding `Cc1cnc(-c2ccc3nc(-c4cccnc4N)n(-c4ccc5c(c4)CC[C@@H]5NC(=O)c4nccnc4C)c3n2)s1` [Compound 243, (S)—N-(5-(2-(2-aminopyridin-3-yl)-5-(5-methylthiazol-2-yl)-3H-imidazo[4,5-b]pyridin-3-yl)-2,3-dihydro-1H-inden-1-yl)-3-methylpyrazine-2-carboxamide], the IC50 stood at 8230 nM on AKT2 (setting [3]) and 75 nM on AKT1 WT (setting [4]).
For `Nc1ncccc1-c1nc2ccc(-n3cccn3)nc2n1-c1ccc2c(c1)CC[C@@H]2NC(=O)c1cnc2ccnn2c1` [Compound 238], in that order: 57.7 nM and 9.1 nM.
`CCOc1ccn(-c2ccc3nc(-c4cccnc4N)n(-c4ccc5c(c4)CC[C@@H]5NC4CCN(C(=O)C5CC5)CC4)c3n2)n1` [Compound 486]: the IC50 at AKT2 (setting [1]) worked out at 1070 nM; on AKT1 WT (setting [2]), 25.1 nM.
In the case of `COC1CN(c2ccn(-c3ccc4nc(-c5cccnc5N)n(-c5ccc6c(c5)CC(F)[C@@H]6NC5CCN(C(=O)C6CC6)CC5)c4n3)n2)C1` (stereo partly drawn) [Compound 553], the IC50 was 344 nM at AKT2 (setting [1]) and 7.04 nM at AKT1 WT (setting [2]).
For `Cn1ccc(N2CCC(N[C@H]3CCc4cc(-n5c(-c6cccnc6N)nc6ccc(-n7ccc(C8CCOCC8)n7)nc65)ccc43)CC2)n1` [Compound 549], the values for the IC50 on AKT2 (setting [1]) and at AKT1 WT (setting [2]) were 723 nM and 27.6 nM, respectively.
Take `Cn1c(C(=O)N[C@H]2CCc3cc(-n4c(-c5cccnc5N)nc5ccc(-n6nccn6)nc54)ccc32)cnc1C(F)F` [Compound 578]: the values for the IC50 at AKT2 (setting [1]) and at AKT1 WT (setting [2]) were 1690 nM and 74.9 nM, respectively.
For the compound `Cc1nncn1[C@H]1CCc2cc(-n3c(-c4cccnc4N)nc4ccc(-n5cccn5)nc43)ccc21` [Compound 217, (S)-3-(3-(1-(3-methyl-4H-1,2,4-triazol-4-yl)-2,3-dihydro-1H-inden-5-yl)-5-(1H-pyrazol-1-yl)-3H-imidazo[4,5-b]pyridin-2-yl)pyridin-2-amine], the half-inhibitory concentration (IC50) was 328 nM at AKT2 (setting [3]) and 38.9 nM on AKT1 WT (setting [4]).
For `Nc1ncccc1-c1nc2ccc(-n3cccn3)nc2n1-c1ccc2c(c1)CC[C@@H]2NC(=O)[C@H]1CCO1` [Compound 372], in that order: > 10000 nM and > 1000 nM.
Regarding `Nc1ncccc1-c1nc2ccc(-n3nccn3)nc2n1-c1ccc2c(c1)CC[C@@H]2NC(=O)c1cnns1` [Compound 436], the IC50 worked out at 4660 nM at AKT2 (setting [1]) and 40 nM on AKT1 WT (setting [2]).
